Results from ChEMBL document CHEMBL1151844, “Flavonoid glucosides from the hairy roots of Catharanthus roseus” (J Nat Prod, 2009).
The source made the active and inactive calls. The calls are words filed in the database; no cut-off is given here.

Legend:
THP-1 [1] = experiment: Antiinflammatory activity against human THP1 cells assessed as inhibition of LPS-induced MMP9 expression pretreated 2 hrs before LPS challenge measured after 24 hrs by SDS-PAGE; format: functional, cell-based
A549 = experiment: Cytotoxicity against human A549 cells; format: functional, cell-based
Ca-Ski = experiment: Cytotoxicity against human CaSki cells by; format: functional, cell-based
DLD2 = experiment: Cytotoxicity against human DLD2 cells; format: functional, cell-based
MCF7 = experiment: Cytotoxicity against human MCF7 cells; format: functional, cell-based
THP-1 [2] = experiment: Cytotoxicity against LPS-stimulated human THP1 cells assessed as cell viability at 29.0 uM pretreated 2 hrs before LPS-challenge measured after 24 hrs by MTS assay; format: cell-based; settings: thp-1, 24 h
THP-1 [3] = experiment: Antiinflammatory activity against human THP1 cells assessed as inhibition of LPS-induced TNFalpha release at 7.3 to 29.0 uM pretreated 2 hrs before LPS challenge measured after 24 hrs by ELISA; format: functional, cell-based
THP-1 [4] = experiment: Cytotoxicity against LPS-stimulated human THP1 cells assessed as cell viability at 29.4 uM pretreated 2 hrs before LPS-challenge measured after 24 hrs by MTS assay; format: cell-based; settings: thp-1, 24 h
THP-1 [5] = experiment: Antiinflammatory activity against human THP1 cells assessed as inhibition of LPS-induced TNFalpha release at 7.3 to 29.4 uM pretreated 2 hrs before LPS challenge measured after 24 hrs by ELISA; format: functional, cell-based
THP-1 [6] = experiment: Antiinflammatory activity against human THP1 cells assessed as inhibition of LPS-induced TNFalpha release at 6.5 to 25.9 uM pretreated 2 hrs before LPS challenge measured after 24 hrs by ELISA; format: functional, cell-based
THP-1 [7] = experiment: Cytotoxicity against LPS-stimulated human THP1 cells assessed as cell viability at 25.9 uM pretreated 2 hrs before LPS-challenge measured after 24 hrs by MTS assay; format: cell-based; settings: thp-1, 24 h
THP-1 [8] = experiment: Cytotoxicity against LPS-stimulated human THP1 cells assessed as cell viability at 26.9 uM pretreated 2 hrs before LPS-challenge measured after 24 hrs by MTS assay; format: cell-based; settings: thp-1, 24 h
THP-1 [9] = experiment: Antiinflammatory activity against human THP1 cells assessed as inhibition of LPS-induced TNFalpha release at 6.7 to 26.9 uM pretreated 2 hrs before LPS challenge measured after 24 hrs by ELISA; format: functional, cell-based

SMILES	Activity (THP-1 [1])	Activity (A549)	Activity (Ca-Ski)	Activity (DLD2)	Activity (MCF7)	Activity (THP-1 [2])	Activity (THP-1 [3])	Activity (THP-1 [4])	Activity (THP-1 [5])	Activity (THP-1 [6])	Activity (THP-1 [7])	Activity (THP-1 [8])	Activity (THP-1 [9])
COc1ccc([C@H]2CC(=O)c3ccc(O[C@@H]4O[C@H](COC(=O)CC(C)CCCC(CO)CCCC(C)C)[C@@H](O)[C@H](O)[C@H]4O)cc3O2)cc1OC (stereo partly drawn)	Dose-dependent effect	Not toxic	Not toxic	Not toxic	Not toxic	Non-toxic	Active	–	–	–	–	–	–
C=C(CCC=C(C)C)CC/C=C(\C)CC(=O)OC[C@H]1O[C@@H](Oc2ccc3c(c2)O[C@@H](c2ccc(OC)c(OC)c2)CC3=O)[C@H](O)[C@@H](O)[C@@H]1O	Dose-dependent effect	Not toxic	Not toxic	Not toxic	Not toxic	–	–	Non-toxic	Active	–	–	–	–
C/C=C(\C)C(CCC(C)CCCC(C)CCCC(C)C)O[C@H]1[C@H](O)[C@@H](O)[C@H](Oc2cc(O)c3c(=O)c(O)c(-c4ccc(OC)c(OC)c4)oc3c2)O[C@@H]1CO (stereo partly drawn)	Dose-dependent effect	Not toxic	Not toxic	Not toxic	Not toxic	–	–	–	–	Active	Non-toxic	–	–
CCC(C)C(CCC(C)CCCC(C)CCCC(C)C)O[C@H]1[C@H](O)[C@@H](O)[C@H](Oc2c(-c3ccc(OC)cc3)oc3cc(O)cc(O)c3c2=O)O[C@@H]1CO (stereo partly drawn)	Dose-dependent effect	Not toxic	Not toxic	Not toxic	Not toxic	–	–	–	–	–	–	Non-toxic	Active
